{"source": "patent US10239889B1", "about": "“Pentacyclic compound” (Eisai R&D Management Co., Ltd., priority 2017, dated 2019)", "key": {"[1]": {"system": "acetylcholine (ACh) in CSF", "assay": "Measurement of acetylcholine (ACh) in rat cerebrospinal fluid (CSF)", "assay_type": "in vivo", "conditions": "Fischer344 rat, oral 10 mg/kg once a day for three days, CSF 24 hours after administration, LC-MS", "description": "Measurement of Acetylcholine (ACh) in Rat Cerebrospinal Fluid (CSF)\nThus, the changes in acetylcholine in CSF were measured in order to determine the changes in intracerebral acetylcholine by the test compounds.\n(§1) (2) Compound Administration\nIn this study, Fischer344 male rats (Charles River Laboratories Japan, Inc.) with a body weight of about 150 to 250 g were used. The test compounds were orally administered to the rats once a day at 10 mg/kg for three days. The vehicle used was 0.01 mol/L hydrochloric acid.\nAt 24 hours after the administration of the vehicle and the test compounds, the CSF was collected from cistema magna in a tube containing AchE inhibitors under pentobarbital anesthesia. The collected CSF was centrifuged at 3500×g at 4° C. for 10 minutes and the supernatant was collected. The collected supernatant was frozen with liquid nitrogen, and then stored at −80° C.\n(4) Measurement of Ach by LC-MS\nTo 10 μL of the CSF was added 50 μL of acetylcholine-d9 chloride (ACh-d9) at a final concentration of 0.34 nmol/L as an internal standard. […] The supernatant was collected and subjected to LC/MS […], and Ach was detected as precursor ion at m/z 146.050 and as product ion at m/z 87.071 and ACh-d9 as an internal standard was detected as precursor ion at m/z 155.088 and as product ion at m/z 87.000. […]"}, "[2]": {"system": "cholinergic neurons, fimbria-fornix lesioned rat model", "assay": "Neuroprotective and restorative effect on cholinergic neurons using fimbria-fornix lesioned rat model (ChAT positive cells, hippocampal VAChT)", "assay_type": "in vivo", "conditions": "% of sham-operated group, mean±SEM; for OD in hippocampal VAChT (%) in test compound administration group: hippocampus; for Number of ChAT positive cells (%) in test compound administration group: medial septal area", "description": "Neuroprotective and Restorative Effect on Cholinergic Neurons Usi Ng Fimbria-Fomix Lesioned Rat Model\n(1) Preparation of Fimbria-Fomix Lesioned Rat Model\nIn this study, Sprague-Dawley male rats (Charles River Laboratories Japan, Inc.) with a body weight of about 250 to 350 g were used. The rat was anesthetized under the combination of three drugs: midazolam (2 mg/kg s.c.), medetomidine hydrochloride (0.15 mg/kg s.c.) and butorphanol tartrate (2.5 mg/kg s.c.) and fixed with a brain stereotaxis apparatus (Narishige Co., Ltd.). The cranial was exposed and a hole with 5 mm width was drilled in the skull from the median line 2 mm posterior to Bregma. A razor with 4 mm width was pierced into the Bregma in 5.5 mm depth to cut fimbria-fornmix. After hemostasis, the scalp was sutured. After the operation, the rat was brought back to the cage and recovered from the anesthesia. In the sham-operated group, a hole with 5 mm width was drilled in the skull from the median line 2 mm posterior to Bregma, but no razor was pierced.\nas §1\nThe test compounds were orally administered to the rats once a day from five days to nine days after the operation (Example 1: 10 mg/kg) or from seven days to fourteen days after the operation (Example 3: 3 mg/kg). The vehicle used was 0.01 mol/L hydrochloric acid. In the sham-operated group, the vehicle was orally administered once a day similarly to the test compound administration group.\nThe rats were anesthetized under pentobarbital and transcardially perfused with ice-cold PBS. After the perfusion, the forebrain including the medial septal area was collected and immersed and shaken overnight with 4% paraformaldehyde. The immersion solution was replaced with 7.5% sucrose solution. It was immersed and shaken overnight in 7.5% sucrose solution, and the immersion solution was replaced with 15% sucrose solution and it was immersed and shaken overnight. The immersion solution was replaced with 30% sucrose solution and it was immersed and shaken overnight. […]\nThe prepared brain coronal frozen sections were stained with DAB (DAB PEROXIDASE SUBSTRATE KIT (Vector, SK-4100)) using a ChAT antibody (Santa Cruz, S.C.-20672) or a VAChT antibody (Merck Millipore, ABN100) as a primary antibody. The section image including the medial septal area or hippocampus as shown in “The mouse Brain in stereotaxic coordinates” (COMPACT THIRD EDITION, Keith B.J. Franklin & George Paxinos) was taken by an all-in-one fluorescence microscope (KEYENCE, BZ-X710) and ChAT positive cells of the medial septal area or optical density (OD) in hippocampal VAChT were measured by BZ analysis software (KEYENCE). […] Data are expressed as the mean±SEM. The differences between the vehicle-treated group and compound-treated (significant: #) was analyzed by unpaired t-test. […]"}, "[3]": {"conditions": "oral 10 mg/kg once a day from five to nine days after operation"}, "[4]": {"conditions": "oral 3 mg/kg once a day from seven to fourteen days after operation"}}}
{"molecule": "CN1CCc2c(sc3nc4n(c(=O)c23)-c2ccc(F)cc2C(=O)N(C)C4)C1", "note": "[Example 1]", "values": [{"measurement": "Amount (%) increased with respect to from the amount of ACh in CSF the vehicle administration group", "setting": "[1]", "result": 160.0, "unit": "%"}, {"measurement": "OD in hippocampal VAChT (%) in test compound administration group", "setting": "[2]; [3]", "result": "77.1 ± 14.6^# %"}, {"measurement": "Number of ChAT positive cells (%) in test compound administration group", "setting": "[2]; [3]", "result": "79.1 ± 15.7", "unit": "%"}]}
{"molecule": "CN1CCc2c(sc3nc4n(c(=O)c23)-c2sccc2C(=O)N(C)C4)C1", "note": "[Example 3, 5,10-dimethyl-5,6,9,10,11,12-hexahydropyrido[4″,3″:4′,5′]thieno[2′,3′:4,5]pyrimido[1,2-a]thieno[3,2-f][1,4]diazepine-4,13-dione]", "values": [{"measurement": "Amount (%) increased with respect to from the amount of ACh in CSF the vehicle administration group", "setting": "[1]", "result": 156.8, "unit": "%"}, {"measurement": "OD in hippocampal VAChT (%) in test compound administration group", "setting": "[2]; [4]", "result": "66.1 ± 14.2^# %"}, {"measurement": "Number of ChAT positive cells (%) in test compound administration group", "setting": "[2]; [4]", "result": "74.1 ± 9.3^# %"}]}
